# Test results published in patent US20250304594A1, “METHYL (R)-2-(FLUOROMETHYL)-5-OXO-4-PHENYL-4,5,6,7-TETRAHYDRO-1H-CYCLOPENTA[B]PYRIDINE-3-CARBOXYLATE AND METHYL (R)-2-(FLUOROMETHYL)-5-OXO-4-PHENYL-1,4,5,7-TETRAHYDROFURO[3,4-B]PYRIDINE-3-CARBOXYLATE AS Cav1,2 ACTIVATORS” (Novartis AG, priority 2020, published 2025).
# What was measured:
# cFos mRNA = cFos mRNA induction in cortex of wild-type mice (PK-PD); type: in vivo, C57BL/6J male mice; details: one hour after administration
# Method: Assessment of Compound Exposure—cFos Induction (PK-PD) Relationship in Wild-Type Mice
# (§1) Compound administration and brain tissue collection. Wild-type C57BL/6J male mice were obtained from Jackson laboratories (Bar Harbor, ME). The acute, single-dose effects of CaV1.2 activators of the present disclosure were evaluated in male eight-week old mice (n=6 mice per compound). Each compound was dissolved in 10% PEG300, 10% Solutol, 10% Cremophore EL, and 70% Phosphate Buffered Saline and administered intraperitoneal (i.p.) at a concentration of 1 mg/kg up to 30 mg/kg depending on the compound. Animals were euthanized one hour after compound administration via exsanguination under deep anesthesia. Blood was collected in EDTA tubes for downstream analysis of drug levels. Brains were rapidly removed from the skull, and the cerebral cortex and cerebellum were regionally dissected. Cerebellar samples were snap frozen in liquid nitrogen to assess compound exposure. Cortical samples for cFos assessment were placed in 500 μl of RNAlater solution (ThermoFisher) to preserve the integrity of RNA in the sample. Samples remained in RNAlater for at least 24 hours at 4° C. before moving to −80° C. for storage before processing.
# Quantification of cFos mRNA induction. Tissue homogenization was performed using TissueLyser system for 96 well plates (Qiagen). First, frozen cortical samples were thawed, removed from RNAlater, and placed into TissueLyser tubes along with Buffer RLT containing 0.5% Reagent DX and one 5 mm TissueLyser metal bead. The TissueLyser tubes were loaded into a TissueLyser II tissue homogenizer for 3 rounds of homogenization, with each round lasting 5 minutes at 30 Hz bead-beating frequency. Total RNA was purified from the homogenate using RNeasy 96 Plus kit (Qiagen), RNA concentration and A260/A280 ratio were quantified via the Nanodrop (ThermoFisher), and all samples were normalized to 100 ng/μL concentration. RNA was reverse transcribed into cDNA using the Superscript III First-strand synthesis SuperMix Kit (ThermoFisher). For each sample, 6 μL of RNA (600 ng total) was mixed with 1 μL of Oligo dT and 1 μl of annealing buffer and heated to 65° C. for 5 minutes. Next, 10 μL of 2× First-Strand Reaction Mix and 2 μl of the Enzyme mix were added to achieve a total reaction volume of 20 μL. The samples were heated to 50° C. for 50 minutes then 85° C. for 5 minutes to complete cDNA synthesis.
# Quantitative PCR was performed on the cDNA samples using Quantitect Multiplex RT-PCR kit (Qiagen) in a 384-well assay format. Each PCR well contained 2 μl of cDNA (60 ng total), 10 μL of RT-PCR mastermix, 1 μL of cFos FAM Taqman probe (Mm00487425_m1 (FAM) #4351368), 1 μL of GAPDH VIC Taqman probe (Mm99999915-g1 (VIC) #4448486), 0.2 μl of Multiplex RT mix and 5.8 μl of RNase-free water. On the ViiA7 Real-Time PCR system (ThermoFisher), the samples were heated to 95° C. for 15 minutes then cycled between 94° C. for 45 seconds and 60° C. for 45 seconds for 45 cycles. cFos Ct values were exported, normalized to GAPDH Ct values, and converted to relative fold change in expression using the delta-delta Ct relative quantification method. cFos fold changes between compound treatments and vehicle were analyzed by one-way ANOVA, followed by Tukey's post-hoc comparisons.
# [1] = Compound exposure in wild-type mice (brain and blood levels); type: in vivo, C57BL/6J male mice; details: Table 9, mice, i.p., one hour after administration; for Kp at 1 h: male, C57BL/6J, mouse, brain (cerebellum) / blood, ip, read-out: Brain:blood ratio
# Method: as §1
# Quantification of compound exposure. Cerebellar tissue samples were homogenized in 4 ml of 20% acetonitrile and 80% Phosphate buffered saline for every 1 g of tissue (5× dilution). Tissue was homogenized using either of the following three methods: hand held probe system, TissueLyser system with 5 mm steel bead at a frequency of 30 s^−1 for 4 min, or OMNI Bead Ruptor Elite homogenizer for 30 seconds to 1 minute depending on tissue type. Tissue samples were added to a 96-well plate (12.5 uL sample) and processed for quantification by mass spectrometry.
Compound,%↑cFOS mRNA cortex (3 mg/kg ip) (cFos mRNA),Kp at 1 h [1],%↑cFOS mRNA cortex (10 mg/kg ip) (cFos mRNA),Brain:blood ratio [1]
"COC(=O)C1=C(CF)NC2=C(C(=O)OC2)[C@H]1c1cccc(F)c1[C@@H](C)F (single isomer, unassigned) [Example 8]",496%,3.5,–,–
"COC(=O)C1=C(CF)NC2=C(C(=O)OC2)[C@H]1c1ccccc1OC(F)F (single isomer, unassigned) [Example 9]",290%,1.5,525%,–
"COC(=O)C1=C(CF)NC2=C(C(=O)OC2)[C@H]1c1cccc(F)c1C(F)(F)F (single isomer, unassigned) [Example 17]",201%,2.1,–,–
"COC(=O)C1=C(CF)NC2=C(C(=O)CC2)[C@H]1c1cccc(F)c1[C@@H](F)CF (single isomer, unassigned) [Example 7, methyl (R)-4-(2-((R or S)-1,2-difluoroethyl)-3-fluorophenyl)-2-(fluoromethyl)-5-oxo-4,5,6,7-tetrahydro-1H-cyclopenta[b]pyridine-3-carboxylate]",262%,–,–,–
"COC(=O)C1=C(CF)NC2=C(C(=O)OC2)[C@H]1c1cccc(F)c1[C@H](F)CF (single isomer, unassigned) [Example 6]",199%,1.5,–,–
"COC(=O)C1=C(CF)NC2=C(C(=O)OC2)[C@H]1c1cc(F)cc(F)c1[C@H](F)CF (single isomer, unassigned) [Example 16, methyl (R)-4-(2-((R or S)-1,2-difluoroethyl)-3,5-difluorophenyl)-2-(fluoromethyl)-5-oxo-1,4,5,7-tetrahydrofuro[3,4-b]pyridine-3-carboxylate]",234%,3.2,–,–
"COC(=O)C1=C(CF)NC2=C(C(=O)OC2)[C@H]1c1cccc(F)c1C1CC1 (single isomer, unassigned) [Example 2]",378%,1.5,–,–
"COC(=O)C1=C(CF)NC2=C(C(=O)OC2)[C@H]1c1cc(F)cc(F)c1C(F)(F)F (single isomer, unassigned) [Example 10]",225%,0.9,–,–
"COC(=O)C1=C(CF)NC2=C(C(=O)OC2)[C@H]1c1cc(F)ccc1C(F)(F)F (single isomer, unassigned) [Example 23]",365%,1.2,–,–
"COC(=O)C1=C(CF)NC2=C(C(=O)CC2)[C@H]1c1cccc(F)c1C1CC1 (single isomer, unassigned) [Example 28]",293%,1.1,–,–
"COC(=O)C1=C(CF)NC2=C(C(=O)OC2)[C@H]1c1cccc(F)c1CC(F)F (single isomer, unassigned) [Example 11]",160%,1.1,–,–
"COC(=O)C1=C(CF)NC2=C(C(=O)OC2)[C@H]1c1cccc(F)c1[C@H]1CC1(F)F (single isomer, unassigned) [Example 1, methyl (R)-4-(2-((R or S)-2,2-difluorocyclopropyl)-3-fluorophenyl)-2-(fluoromethyl)-5-oxo-1,4,5,7-tetrahydrofuro[3,4-b]pyridine-3-carboxylate]",254%,2.9,–,–
"COC(=O)C1=C(CF)NC2=C(C(=O)OC2)[C@H]1c1cccc(F)c1C(F)F (single isomer, unassigned) [Example 15]",176%,1.7,294%,–
"COC(=O)C1=C(CF)NC2=C(C(=O)OC2)[C@H]1c1cc(F)cc(F)c1C(F)F (single isomer, unassigned) [Example 18]",173%,1,280%,–
"COC(=O)C1=C(CF)NC2=C(C(=O)OC2)[C@H]1c1cc(F)cc(F)c1[C@H]1CC1(F)F (single isomer, unassigned) [Example 4, Methyl (R)-4-(2-((R or S)-2,2-difluorocyclopropyl)-3,5-difluorophenyl)-2-(fluoromethyl)-5-oxo-1,4,5,7-tetrahydrofuro[3,4-b]pyridine-3-carboxylate]",161%,–,–,1.4
"COC(=O)C1=C(CF)NC2=C(C(=O)OC2)[C@H]1c1cc(F)cc(F)c1[C@H](C)F (single isomer, unassigned) [Example 5, methyl (R)-4-(3,5-difluoro-2-((R or S)-1-fluoroethyl)phenyl)-2-(fluoromethyl)-5-oxo-1,4,5,7-tetrahydrofuro[3,4-b]pyridine-3-carboxylate]",400%,3.3,–,–
"COC(=O)C1=C(CF)NC2=C(C(=O)OC2)[C@H]1c1cc(F)cc(F)c1C1CC1 (single isomer, unassigned) [Example 13]",225%,3.5,444%,–
"COC(=O)C1=C(CF)NC2=C(C(=O)OC2)[C@H]1c1cc(F)cc(F)c1[C@H]1CC1(F)F (single isomer, unassigned) [Example 3, Methyl (R)-4-(2-((R or S)-2,2-difluorocyclopropyl)-3,5-difluorophenyl)-2-(fluoromethyl)-5-oxo-1,4,5,7-tetrahydrofuro[3,4-b]pyridine-3-carboxylate]",204%,2.8,–,–
